This note sets out measurements from the supplement of paper PMC8498969.

As usually defined, the IC50 is the point on the concentration scale where inhibition reaches its midpoint.

Each structure is given as a SMILES string.

In test [1] the test system is HEK293. As to the kind of experiment: cytotoxicity IC50 (ATP content, uninfected cells); higher = less cytotoxic. The following applies: infection: none.
Test [2] relates to HEK293. The test is described as follows: maximal inhibition of ZIKV NS1 production (% inhibition); higher = stronger antiviral effect. On the procedure:
(§1)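 HEK293 cells in 1536-well plates were pre-treated with compound for 1 h, infected with ZIKV (MOI 1) for 24 h, and NS1 antigen (intra- plus extracellular) was measured by TR-FRET. Confirmation used 11-point 1:3 dilutions, and IC50 and maximal inhibition were fitted in GraphPad Prism.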

For test [3], the system named is HEK293. As to the kind of experiment: IC50 for inhibition of ZIKV NS1 production. On the procedure:
as §1

As for `CC[C@@H]([C@H](C)O)n1ncn(-c2ccc(N3CCN(c4ccc(OC[C@@H]5CO[C@@](Cn6cncn6)(c6ccc(F)cc6F)C5)cc4)CC3)cc2)c1=O`, the “cytotoxicity IC50” value with HEK293 [1] was 9.7 µM. Further, the maximal inhibition in the test with HEK293 [2] was 73. The compound also yielded a 50% inhibitory concentration (IC50) with HEK293 [3] of 18 µM.
The matching figures for `Cn1c(CCCC(=O)O)nc2cc(N(CCCl)CCCl)ccc21`: greater than 100 µM, 92 and 50 µM.
Turning to `CO[C@@H]1[C@@H](OC)[C@H](C)[C@@](O)(CC(=O)O)O[C@H]1[C@H](C)[C@H]1O[C@@]2(CC[C@@](C)([C@H]3CC[C@@](C)([C@@H]4O[C@@H]([C@H]5O[C@](C)(O)[C@H](C)C[C@@H]5C)C[C@@H]4O[C@@H]4C[C@H](OC)[C@@H](OC)[C@H](C)O4)O3)O2)C[C@H](O)[C@H]1C`, the “cytotoxicity IC50” value in the test with HEK293 [1] worked out at 1.5 µM. For the same compound, the maximal inhibition in the test with HEK293 [2] worked out at 100. Besides, the IC50 in the test on HEK293 [3] was 1.4 µM.
As for `CS[C@H]1SC[C@H]2C(=O)N(C)[C@@H](C(C)C)C(=O)OC[C@@H](NC(=O)c3cnc4ccccc4n3)C(=O)N[C@@H](C)C(=O)N(C)[C@@H]1C(=O)N(C)[C@@H](C(C)C)C(=O)OC[C@@H](NC(=O)c1cnc3ccccc3n1)C(=O)N[C@@H](C)C(=O)N2C`, in the test on HEK293 [1], the “cytotoxicity IC50” value was greater than 100 µM. The compound also showed a maximal inhibition in the test on HEK293 [2] of 98. The IC50 with HEK293 [3] was found to be 0.017 µM.
The matching figures for `OC[C@H]1O[C@@H](n2cnc3c(S)ncnc32)[C@H](O)[C@@H]1O`: 4.1 µM, 99 and 8 µM.
With `COc1cccc2c(NCc3ccccc3)nc(-n3c(N)nc4ccccc43)nc12`, the “cytotoxicity IC50” value with HEK293 [1] came to 30 µM. The compound further came in with a maximal inhibition in the test with HEK293 [2] of 100. In addition, the half-inhibitory concentration (IC50) with HEK293 [3] came to 50 µM.
The matching figures for `CC(=O)Nc1ccc([C@H](C)C(=O)Nc2ncc(C(C)C)s2)cc1`: greater than 100 µM, 90 and 7.4 µM.
Turning to `C[C@]12O[C@H](C[C@]1(O)CO)n1c3ccccc3c3c4c(c5c6ccccc6n2c5c31)CNC4=O`, the “cytotoxicity IC50” value in the test on HEK293 [1] is 15 µM. Also, the maximal inhibition in the test with HEK293 [2] amounted to 58. In the test on HEK293 [3], this compound displayed an IC50 of 1.7 µM.
With `C=CCn1c(=O)c2cnc(Nc3ccc(N4CCN(C)CC4)cc3)nc2n1-c1cccc(C(C)(C)O)n1`, the “cytotoxicity IC50” value with HEK293 [1] was greater than 100 µM. Also, in the test with HEK293 [2], the maximal inhibition worked out at 99. The compound further registered a half-inhibitory concentration (IC50) in the test on HEK293 [3] of 1.7 µM.
The matching figures for `CC(C)n1nc(-c2cc3cc(O)ccc3[nH]2)c2c(N)ncnc21`: 77 µM, 78 and 16 µM.
With `FC(F)c1nc2ccccc2n1-c1nc(N2CCOCC2)nc(N2CCOCC2)n1`, in the test on HEK293 [1], the “cytotoxicity IC50” value was 60 µM. In the test with HEK293 [2], this compound registered a maximal inhibition of 85. In the test on HEK293 [3], this compound had a half-inhibitory concentration (IC50) of 3.9 µM.
The matching figures for `COc1c(C)c2c(c(O)c1C/C=C(\C)CCC(=O)OCCN1CCOCC1)C(=O)OC2`: greater than 100 µM, 105 and 0.53 µM.
As for `CCc1c2c(nc3ccc(O)cc13)-c1cc3c(c(=O)n1C2)COC(=O)[C@]3(O)CC`, the “cytotoxicity IC50” value in the test on HEK293 [1] is greater than 100 µM. The maximal inhibition with HEK293 [2] was 61. Also, the IC50 in the test on HEK293 [3] amounted to 0.011 µM.
`CN1CCN(Cc2ccc(NC(=O)Nc3ccc(Oc4cc(NC(=O)C5CC5)ncn4)cc3)cc2C(F)(F)F)CC1`: in the test with HEK293 [1], the “cytotoxicity IC50” value is greater than 100 µM. This compound had a maximal inhibition in the test with HEK293 [2] of 104. Besides, the IC50 with HEK293 [3] was found to be 2.4 µM.
The matching figures for `CO[C@H]1C(=O)[C@]2(C)[C@@H](OC)C[C@H]3OC[C@@]3(OC(C)=O)[C@H]2[C@H](OC(=O)c2ccccc2)[C@]2(O)C[C@H](OC(=O)[C@H](O)[C@@H](NC(=O)OC(C)(C)C)c3ccccc3)C(C)=C1C2(C)C`: greater than 100 µM, 68 and 1.8 µM.
Take `O=C1c2ccccc2-[n+]2ccc3c([nH]c4ccccc43)c21`: in the test with HEK293 [1], the “cytotoxicity IC50” value was found to be 7.5 µM. Besides, the maximal inhibition with HEK293 [2] was 86. Further, the IC50 with HEK293 [3] came to 2 µM.
